Laboratory results as given in PMC5599477, “Comparative stability of Major Facilitator Superfamily transport proteins” (European Biophysics Journal, 2017).

Tests used:
GlpT = target: T1, GlpT (Escherichia coli, UniProt P08194); experiment: far-UV circular dichroism at […] nm, urea denaturation with ligand; assay type: binding; settings: 50 uM ligand; 0.01 mg/ml protein; detergent-solubilised; 50 mM Tris-HCl pH 7.4; chemical denaturation onset, not an affinity
T1 construct: 10-His tag (modified pET28a), expressed in E. coli BL21-AI, purified, detergent-solubilised (LacY-WT procedure, Tris-HCl pH 7.4)
T1 sequence (P08194 1-452): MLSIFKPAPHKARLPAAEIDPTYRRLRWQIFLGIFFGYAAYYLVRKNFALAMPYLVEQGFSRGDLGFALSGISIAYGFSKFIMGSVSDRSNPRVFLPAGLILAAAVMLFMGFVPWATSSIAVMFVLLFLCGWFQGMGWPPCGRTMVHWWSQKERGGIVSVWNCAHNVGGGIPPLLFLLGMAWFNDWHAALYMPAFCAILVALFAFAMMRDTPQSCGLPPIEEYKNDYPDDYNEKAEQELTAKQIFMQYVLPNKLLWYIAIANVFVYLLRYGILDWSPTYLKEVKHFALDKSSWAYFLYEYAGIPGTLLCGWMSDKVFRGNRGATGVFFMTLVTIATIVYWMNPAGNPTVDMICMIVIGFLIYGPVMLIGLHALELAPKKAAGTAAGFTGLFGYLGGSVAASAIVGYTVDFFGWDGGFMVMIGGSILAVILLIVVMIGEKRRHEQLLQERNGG

XylE = target: T2, XylE (Escherichia coli, UniProt P0AGF4); experiment: far-UV circular dichroism at […] nm, GuHCl denaturation with ligand; assay type: binding; settings: 1 mM ligand; 0.35 mg/ml protein; detergent-solubilised; chemical denaturation onset, not an affinity; D/L form not given
T2 construct: 10-His tag (modified pET28a), expressed in E. coli BL21-AI, purified, detergent-solubilised (LacY-WT procedure)
T2 sequence (P0AGF4 1-491): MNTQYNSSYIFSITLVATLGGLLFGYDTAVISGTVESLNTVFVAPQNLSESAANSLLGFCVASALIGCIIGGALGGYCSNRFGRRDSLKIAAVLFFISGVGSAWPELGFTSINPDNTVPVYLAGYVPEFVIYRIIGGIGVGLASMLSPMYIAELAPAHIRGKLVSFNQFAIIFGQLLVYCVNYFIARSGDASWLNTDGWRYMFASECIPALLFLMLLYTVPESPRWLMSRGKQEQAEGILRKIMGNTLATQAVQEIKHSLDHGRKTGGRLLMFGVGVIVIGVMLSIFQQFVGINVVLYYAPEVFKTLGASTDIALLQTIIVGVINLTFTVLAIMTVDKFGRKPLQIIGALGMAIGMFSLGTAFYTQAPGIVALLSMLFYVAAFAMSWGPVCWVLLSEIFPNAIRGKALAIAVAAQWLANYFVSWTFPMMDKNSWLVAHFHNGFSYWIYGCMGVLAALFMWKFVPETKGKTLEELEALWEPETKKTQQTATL

Concentration of GuHCl required for unfolding (M) (XylE) [M GuHCl]	SMILES	Effect of ligand on stability (GlpT) [M urea]
	Cc1ncc(COP(=O)(O)O)c(C=O)c1O [pyridoxal-5-phosphate]	> 6
> 5	OC1OC[C@@H](O)[C@H](O)[C@H]1O (some centres unmarked) [xylose]	
